According to paper PMC11211886 (Frontiers in Pharmacology, 2024):

Tests used:
[1] = test system: CYP2B6 mRNA; assay: CYP induction in human hepatocytes, CYP2B6 mRNA (RT-PCR)
Protocol: […] […] […] Enzyme activity for each CYP isoform was reported as a fold change over vehicle control and the percent of positive control (detailed calculation in Supplementary 1.1). Hepatocytes were harvested with a lysis buffer from RNeasy 96 Kit (Qiagen Inc., Germantown, MD, USA) to isolate RNA, which was analyzed by real-time quantitative polymerase chain reaction (RT-PCR). […] Emax (the maximal observed induction) and EC50 (the concentration that supports half-maximal induction) were estimated by non-linear regression of fold increase in CYP mRNA expression versus concentration plots.
% of positive control = [(fold change in treated sample)-1] / [(fold change in positive control)-1] × 100
Based on the gene expression, a minimum of 4-fold increase of positive control compared to vehicle control, a minimum of 2-fold increase of the test article compared vehicle control and increased in a concentration-dependent manner was considered as the cutoff for a positive signal in in vitro induction assay.

[2] = biological target: T1, OAT3 (Homo sapiens, UniProt Q8TCC7); assay: OAT3 inhibition, estrone 3-sulfate uptake in transfected HEK293 cells
T1 sequence (Q8TCC7 1-542): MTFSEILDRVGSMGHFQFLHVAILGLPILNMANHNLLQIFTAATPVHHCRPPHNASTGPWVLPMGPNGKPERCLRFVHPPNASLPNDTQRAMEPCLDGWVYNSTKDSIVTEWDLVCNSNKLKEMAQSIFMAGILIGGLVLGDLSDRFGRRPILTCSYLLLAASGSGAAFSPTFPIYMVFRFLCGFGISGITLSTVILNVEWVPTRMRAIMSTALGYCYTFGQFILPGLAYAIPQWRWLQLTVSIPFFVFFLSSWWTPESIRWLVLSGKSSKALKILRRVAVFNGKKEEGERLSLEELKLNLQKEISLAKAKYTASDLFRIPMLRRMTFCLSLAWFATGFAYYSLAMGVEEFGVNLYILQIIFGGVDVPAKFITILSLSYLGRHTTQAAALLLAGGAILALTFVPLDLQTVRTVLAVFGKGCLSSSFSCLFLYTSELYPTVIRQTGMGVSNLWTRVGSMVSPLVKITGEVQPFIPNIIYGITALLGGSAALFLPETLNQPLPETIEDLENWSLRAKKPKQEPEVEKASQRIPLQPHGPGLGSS
Protocol: (§1) The pre-incubation solutions were removed, and incubation solutions containing the inhibitors and probe substrates (or transport buffer containing an equal volume of vehicle control and probe substrates) were added and incubated at 37°C for 2 min (5 min for OATP1B3). The probe substrate for OAT1 was 4-aminohippuric acid (10 μM), for OAT3 was estrone 3-sulfate (10 μM), for OCT2 was metformin (100 μM), for OATP1B1 was β-estradiol 17-(β-D-glucuronide) (5 μM), for OATP1B3 was β-estradiol 17-(β-D-glucuronide) (10 μM), and for MATE1 and MATE2-K was tetraethylammonium (10 μM). After incubation, cells were washed three times with ice-cold transport buffer (25 mM HEPES, pH 7.4, pH 8.0 for overexpressing MATE1 and MATE2-K HEK293 cells) and lysed in distilled water. The concentrations of probe substrates were determined by LC-MS/MS, and a BCA Kit (Solarbio ®Life Sciences, Beijing, China) was used to determine the protein content in the cell lysate.
(§2) where C is the concentration of the drug in the cell lysate (nM), P is the protein concentration of the cell lysate (mg/mL), and T is the incubation time (minute). Uptake ratetest compound is the uptake rate of the substrate in the presence of the test compound. Uptake ratevehicle control is the uptake rate of the substrate in the presence of the vehicle control. Uptake ratepassive is the uptake rate of the substrate in the presence of the positive inhibitor at the top test concentration.

[3] = biological target: T2, OCT2 (Homo sapiens, UniProt O15244); assay: OCT2 inhibition, metformin uptake in transfected HEK293 cells
T2 sequence (O15244 1-555): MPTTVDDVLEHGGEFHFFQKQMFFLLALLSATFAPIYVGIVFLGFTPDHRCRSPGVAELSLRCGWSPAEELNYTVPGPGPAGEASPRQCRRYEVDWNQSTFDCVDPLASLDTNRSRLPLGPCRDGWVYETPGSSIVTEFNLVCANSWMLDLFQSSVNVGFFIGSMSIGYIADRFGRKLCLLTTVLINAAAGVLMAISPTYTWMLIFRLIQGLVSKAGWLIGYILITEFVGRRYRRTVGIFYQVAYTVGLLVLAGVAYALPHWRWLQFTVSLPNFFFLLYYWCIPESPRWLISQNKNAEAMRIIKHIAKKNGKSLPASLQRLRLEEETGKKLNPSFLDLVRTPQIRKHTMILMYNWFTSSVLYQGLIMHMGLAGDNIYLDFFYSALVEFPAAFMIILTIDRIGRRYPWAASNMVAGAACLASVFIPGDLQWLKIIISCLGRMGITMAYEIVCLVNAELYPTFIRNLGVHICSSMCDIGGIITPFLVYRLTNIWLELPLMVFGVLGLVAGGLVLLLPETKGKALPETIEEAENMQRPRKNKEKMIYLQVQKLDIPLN
Protocol: as §1, §2

In the case of `C[C@H](Nc1ncnc(N)c1C#N)c1cc2ncc(Cl)n2nc1-c1ccccc1` [Amdizalisib], the “R3 value (CYP2B6 induction, basic kinetic model)” value [1] is reported as no more than 0.8, the “induction on CYP2B6 mRNA expression” value ([1]; 20 uM) is reported as >2-fold induction on CYP1A2, 2B6, 3A4, 2C9 mRNA expression at 20 uM and the “Gene expression Percent of PC (%)” value ([1]; CYP2B6, donor seven, 1 µM) is reported as 9.50%. For the same molecule, the “Gene expression Percent of PC (%)” value ([1]; CYP2B6, donor seven, 3 µM) was 1.70%, the “Gene expression Percent of PC (%)” value ([1]; CYP2B6, donor seven, 10 µM) was 60.8% and the “Gene expression Percent of PC (%)” value ([1]; CYP2B6, donor seven, 20 µM) was 22.4%. For the same molecule, the “Gene expression Percent of PC (%)” value ([1]; CYP2B6, donor seven, 30 µM) was 43.7%, the “Gene expression Percent of PC (%)” value ([1]; CYP2B6, donor six, 1 µM) was 2.50% and the “Gene expression Percent of PC (%)” value ([1]; CYP2B6, donor six, 3 µM) was 5.50%. For the same molecule, the “Gene expression Percent of PC (%)” value ([1]; CYP2B6, donor six, 10 µM) was 34.3%, the “Gene expression Percent of PC (%)” value ([1]; CYP2B6, donor six, 20 µM) was 36.8% and the “Gene expression Percent of PC (%)” value ([1]; CYP2B6, donor six, 30 µM) was 25.2%. The “Gene expression Percent of PC (%)” value ([1]; CYP2B6, donor two, 1 µM) was 5.40%, the “Gene expression Percent of PC (%)” value ([1]; CYP2B6, donor two, 3 µM) was 2.30% and the “Gene expression Percent of PC (%)” value ([1]; CYP2B6, donor two, 10 µM) was 29.6%. For the same molecule, the “Gene expression Percent of PC (%)” value ([1]; CYP2B6, donor two, 20 µM) was 18.1%, the “Gene expression Percent of PC (%)” value ([1]; CYP2B6, donor two, 30 µM) was 39.0% and the “Emax, CYP2B6 expression” value ([1]; donor seven) was 5.42 fold. The “Emax, CYP2B6 expression” value ([1]; donor six) was 7.94 fold, the “Emax, CYP2B6 expression” value ([1]; donor two) was 3.39 fold and the IC50 [2] was 41.1 µM. The Percentage transported ([2]; OAT3, compound 0.3 μM) was 96.4%, the Uptake rate ([2]; OAT3, compound 0.3 μM) was 101±1.22 pmol/mg protein/min and the Percentage transported ([2]; OAT3, compound 1 μM) was 103%. The Uptake rate ([2]; OAT3, compound 1 μM) was 106±2.62 pmol/mg protein/min, the Percentage transported ([2]; OAT3, compound 3 μM) was 97.5% and the Uptake rate ([2]; OAT3, compound 3 μM) was 102±3.76 pmol/mg protein/min. It also gave a Percentage transported ([2]; OAT3, compound 10 μM) of 101%, an Uptake rate ([2]; OAT3, compound 10 μM) of 105±1.14 pmol/mg protein/min and a Percentage transported ([2]; OAT3, compound 30 μM) of 52.3%. The Uptake rate ([2]; OAT3, compound 30 μM) was 63.6±3.38 pmol/mg protein/min, the Percentage transported ([2]; OAT3, compound 100 μM) was 27.3% and the Uptake rate ([2]; OAT3, compound 100 μM) was 42.5±2.15 pmol/mg protein/min. For the same molecule, the inhibition at 2 min, 0.3 µM ([2]; human, pH 7.4) was 3.57%, the inhibition at 2 min, 1 µM ([2]; human, pH 7.4) was -2.52% and the inhibition at 2 min, 3 µM ([2]; human, pH 7.4) was 2.54%. It also gave an inhibition at 2 min, 10 µM ([2]; human, pH 7.4) of -0.883%, an inhibition at 2 min, 30 µM ([2]; human, pH 7.4) of 47.7% and an inhibition at 2 min, 100 µM ([2]; human, pH 7.4) of 72.7%. For the same molecule, the “calculated R value (OAT3)” value ([2]; renal OATs) was less than 1.1, the IC50 [3] was greater than 100 µM and the “calculated R value (OCT2)” value [3] was less than 1.1. The Percentage transported ([3]; OCT2, compound 0.3 μM) was 98.7%, the Uptake rate ([3]; OCT2, compound 0.3 μM) was 772±136 pmol/mg protein/min and the Percentage transported ([3]; OCT2, compound 1 μM) was 93.3%. For the same molecule, the Uptake rate ([3]; OCT2, compound 1 μM) was 733±47.7 pmol/mg protein/min, the Percentage transported ([3]; OCT2, compound 3 μM) was 95.1% and the Uptake rate ([3]; OCT2, compound 3 μM) was 746±13.4 pmol/mg protein/min. The Percentage transported ([3]; OCT2, compound 10 μM) was 92.7%, the Uptake rate ([3]; OCT2, compound 10 μM) was 728±32.8 pmol/mg protein/min and the Percentage transported ([3]; OCT2, compound 30 μM) was 108%. It also gave an Uptake rate ([3]; OCT2, compound 30 μM) of 839±49.9 pmol/mg protein/min, a Percentage transported ([3]; OCT2, compound 100 μM) of 50.8% and an Uptake rate ([3]; OCT2, compound 100 μM) of 429±46.2 pmol/mg protein/min. It also gave an inhibition at 2 min, 0.3 µM ([3]; human, pH 7.4) of 1.28%, an inhibition at 2 min, 1 µM ([3]; human, pH 7.4) of 6.72% and an inhibition at 2 min, 3 µM ([3]; human, pH 7.4) of 4.92%. For the same molecule, the inhibition at 2 min, 10 µM ([3]; human, pH 7.4) was 7.34%, the inhibition at 2 min, 30 µM ([3]; human, pH 7.4) was -8.07% and the inhibition at 2 min, 100 µM ([3]; human, pH 7.4) was 49.2%.
